Ends that are not written are not given here.
These substances were tested on E. coli BW25113. Conditions: BW25113, 18 h.
Format: cell-based, Escherichia coli
Text: The following bacterial strains were used: Escherichia coli BW25113, E. coli BW25113ΔsbmA (JW0368‐1, KEIO collection21); Acinetobacter baumannii ATCC 19606, Klebsiella pneumoniae ATCC 700603, Pseudomonas aeruginosa ATCC 27853 and Staphylococcus aureus ATCC 25923. The pathogenic E. coli EURL‐VTEC A07, E. coli EURL‐VTEC C07, E. coli SSI‐NN14, E. coli EA22, E. coli SSI‐OO15 and E. coli C679‐12 strains were generously provided by the European Union Reference Laboratory for E. coli, Department of Food Safety, Nutrition and Veterinary Public Health, Istituto Superiore di Sanità, Rome, Italy. All the strains were grown overnight in Müller‐Hinton broth (MHB, Difco) at 37 °C, with shaking (140 rpm). The day after, the overnight bacterial cultures were diluted approx. 1 : 40 in fresh MHB and incubated at 37 °C with shaking (140 rpm) until an OD600nm of ≈0.3 was reached. E. coli BW25113ΔsbmA was grown in the presence of 50 μg mL^−1 kanamycin.
Peptides were diluted in 100 μL of MHB to the concentration of 128 μM, dispensed in the first wells of a 96‐wells microtiter plate (round‐bottom) and serially two‐fold diluted with MHB into successive wells in a final volume of 50 μl. Subsequently, 50 μL of a bacterial suspension (5×10^5 CFU mL^−1) were added to each well, halving the final concentration of bacteria and peptides. Bacteria were added to MHB only as bacterial growth‐control, whereas 100 μl of MHB were used to check the medium sterility. The plate was incubated overnight at 37 °C (≈18 hours) and sealed with parafilm to minimise evaporation. The MIC was calculated as the first clear well without bacterial growth. If barely detectable growth was present, the OD600nm of the plate was measured by a multiplate reader Tecan (software Sunrise). The MIC was then calculated as the well whose OD620 was≤1 % of that of the untreated growth control.
With AFRPPIRRPPIRPPFYPG-NH2 [R1A] the MIC was 48 µM. EFRPPIRRPPIRPPFYPG-NH2 [R1E] was tested, and the MIC was greater than 64 µM. With FFRPPIRRPPIRPPFYPG-NH2 [R1F] the MIC was 64 µM. In the case of GFRPPIRRPPIRPPFYPG-NH2 [R1G], the MIC is reported as 32 µM. In the case of PFRPPIRRPPIRPPFYPG-NH2 [R1P], the MIC is reported as 64 µM. Substance “RARPPIRRPPIRPPFYPG-NH2 (C-terminus assumed) [F2A]” has an MIC of 32 µM. “RERPPIRRPPIRPPFYPG-NH2 (C-terminus assumed) [F2E]” was tested, and the MIC was greater than 64 µM. RFAPPIRRPPIRPPFYPG-NH2 [R3A] was tested, and the MIC was 64 µM. For RFEPPIRRPPIRPPFYPG-NH2 [R3E], the MIC was greater than 64 µM. For RFFPPIRRPPIRPPFYPG-NH2 [R3F], the MIC was 64 µM. With RFGPPIRRPPIRPPFYPG-NH2 [R3G] the MIC was 64 µM. Work on RFPPPIRRPPIRPPFYPG-NH2 [R3P] yielded an MIC of 64 µM. Substance “RFRAPIRRPPIRPPFYPG-NH2 (C-terminus assumed) [P4A]” has an MIC of 24 µM. For “RFREPIRRPPIRPPFYPG-NH2 (C-terminus assumed) [P4E]”, the MIC was 64 µM. “RFRFPIRRPPIRPPFYPG-NH2 (C-terminus assumed) [P4F]” showed an MIC of 8 µM. “RFRGPIRRPPIRPPFYPG-NH2 (C-terminus assumed) [P4G]” showed an MIC of 8 µM. “RFRPAIRRPPIRPPFYPG-NH2 (C-terminus assumed) [P5A]” was tested, and the MIC was 64 µM. Work on “RFRPEIRRPPIRPPFYPG-NH2 (C-terminus assumed) [P5E]” yielded an MIC greater than 64 µM. With “RFRPFIRRPPIRPPFYPG-NH2 (C-terminus assumed) [P5F]” the MIC was 32 µM. “RFRPGIRRPPIRPPFYPG-NH2 (C-terminus assumed) [P5G]” showed an MIC greater than 64 µM. “RFRPPARRPPIRPPFYPG-NH2 (C-terminus assumed) [I6A]” gave an MIC of 64 µM. “RFRPPERRPPIRPPFYPG-NH2 (C-terminus assumed) [I6E]” showed an MIC greater than 64 µM. Substance “RFRPPFRRPPIRPPFYPG-NH2 (C-terminus assumed) [I6F]” has an MIC of 16 µM. Work on “RFRPPGRRPPIRPPFYPG-NH2 (C-terminus assumed) [I6G]” yielded an MIC greater than 64 µM. RFRPPIARPPIRPPFYPG-NH2 [R7A] was tested, and the MIC was greater than 64 µM. RFRPPIERPPIRPPFYPG-NH2 [R7E] gave an MIC greater than 64 µM. RFRPPIFRPPIRPPFYPG-NH2 [R7F] showed an MIC of 32 µM. Substance RFRPPIGRPPIRPPFYPG-NH2 [R7G] has an MIC greater than 64 µM. In the case of RFRPPIPRPPIRPPFYPG-NH2 [R7P], the MIC is reported as greater than 64 µM. Substance RFRPPIRAPPIRPPFYPG-NH2 [R8A] has an MIC greater than 64 µM. With RFRPPIREPPIRPPFYPG-NH2 [R8E] the MIC was greater than 64 µM. In the case of RFRPPIRFPPIRPPFYPG-NH2 [R8F], the MIC is reported as greater than 64 µM. In the case of RFRPPIRGPPIRPPFYPG-NH2 [R8G], the MIC is reported as greater than 64 µM. RFRPPIRPPPIRPPFYPG-NH2 [R8P] gave an MIC greater than 64 µM. Work on “RFRPPIRRAPIRPPFYPG-NH2 (C-terminus assumed) [P9A]” yielded an MIC greater than 64 µM. In the case of “RFRPPIRREPIRPPFYPG-NH2 (C-terminus assumed) [P9E]”, the MIC is reported as greater than 64 µM. For “RFRPPIRRFPIRPPFYPG-NH2 (C-terminus assumed) [P9F]”, the MIC was 16 µM. Substance “RFRPPIRRGPIRPPFYPG-NH2 (C-terminus assumed) [P9G]” has an MIC greater than 64 µM. In the case of “RFRPPIRRPAIRPPFYPG-NH2 (C-terminus assumed) [P10A]”, the MIC is reported as greater than 64 µM. “RFRPPIRRPEIRPPFYPG-NH2 (C-terminus assumed) [P10E]” was tested, and the MIC was greater than 64 µM. RFRPPIRRPFIRPPFYPG-NH2 [P10F] was tested, and the MIC was 64 µM. With RFRPPIRRPGIRPPFYPG-NH2 [P10G] the MIC was greater than 64 µM. Work on “RFRPPIRRPPARPPFYPG-NH2 (C-terminus assumed) [I11A]” yielded an MIC greater than 64 µM. Substance “RFRPPIRRPPERPPFYPG-NH2 (C-terminus assumed) [I11E]” has an MIC greater than 64 µM. Work on “RFRPPIRRPPFRPPFYPG-NH2 (C-terminus assumed) [I11F]” yielded an MIC of 32 µM. For “RFRPPIRRPPGRPPFYPG-NH2 (C-terminus assumed) [I11G]”, the MIC was greater than 64 µM. RFRPPIRRPPIAPPFYPG-NH2 [R12A] showed an MIC greater than 64 µM. RFRPPIRRPPIEPPFYPG-NH2 [R12E] showed an MIC greater than 64 µM. Substance RFRPPIRRPPIFPPFYPG-NH2 [R12F] has an MIC greater than 64 µM. Work on RFRPPIRRPPIGPPFYPG-NH2 [R12G] yielded an MIC greater than 64 µM. RFRPPIRRPPIPPPFYPG-NH2 [R12P] was tested, and the MIC was greater than 64 µM. Substance RFRPPIRRPPIRAPFYPG-NH2 [P13A] has an MIC greater than 64 µM. In the case of RFRPPIRRPPIREPFYPG-NH2 [P13E], the MIC is reported as greater than 64 µM. In the case of RFRPPIRRPPIRFPFYPG-NH2 [P13F], the MIC is reported as 32 µM. RFRPPIRRPPIRGPFYPG-NH2 [P13G] showed an MIC greater than 64 µM. For RFRPPIRRPPIRPAFYPG-NH2 [P14A], the MIC was greater than 64 µM. RFRPPIRRPPIRPEFYPG-NH2 [P14E] was tested, and the MIC was greater than 64 µM. With RFRPPIRRPPIRPFFYPG-NH2 [P14F] the MIC was 32 µM. With RFRPPIRRPPIRPGFYPG-NH2 [P14G] the MIC was greater than 64 µM. Substance “RFRPPIRRPPIRPPAYPG-NH2 (C-terminus assumed) [F15A]” has an MIC of 64 µM. In the case of “RFRPPIRRPPIRPPEYPG-NH2 (C-terminus assumed) [F15E]”, the MIC is reported as greater than 64 µM. Work on RFRPPIRRPPIRPPFAPG-NH2 [Y16A] yielded an MIC of 64 µM. In the case of RFRPPIRRPPIRPPFEPG-NH2 [Y16E], the MIC is reported as greater than 64 µM. RFRPPIRRPPIRPPFFPG-NH2 [Y16F] was tested, and the MIC was 16 µM. Substance RFRPPIRRPPIRPPFGPG-NH2 [Y16G] has an MIC greater than 64 µM. For RFRPPIRRPPIRPPFPPG-NH2 [Y16P], the MIC was 64 µM. RFRPPIRRPPIRPPFRPG-NH2 [Y16R] gave an MIC of 16 µM. RFRPPIRRPPIRPPFSPG-NH2 [Y16S] showed an MIC greater than 64 µM. With RFRPPIRRPPIRPPFYAG-NH2 [P17A] the MIC was 16 µM. RFRPPIRRPPIRPPFYEG-NH2 [P17E] showed an MIC greater than 64 µM. With RFRPPIRRPPIRPPFYFG-NH2 [P17F] the MIC was 16 µM. RFRPPIRRPPIRPPFYGG-NH2 [P17G] showed an MIC of 16 µM. In the case of “RFRPPIRRPPIRPPFYPG-NH2 [wt (SPOT form), reference compound]”, the MIC is reported as 32 µM. “RFRPPIRRPPIRPPFYRG-NH2 [258 (SPOT form)]” showed an MIC of 8 µM. With RFRPPIRRPPIRPPFYSG-NH2 [P17S] the MIC was 16 µM. Substance “RFRPPIRRPPIRPPGYPG-NH2 (C-terminus assumed) [F15G]” has an MIC of 32 µM. For “RFRPPIRRPPIRPPPYPG-NH2 (C-terminus assumed) [F15P]”, the MIC was greater than 64 µM. “RFRPPIRRPPIRPPRYPG-NH2 (C-terminus assumed) [F15R]” was tested, and the MIC was 32 µM. “RFRPPIRRPPIRPPSYPG-NH2 (C-terminus assumed) [F15S]” gave an MIC of 64 µM. Work on RFRPPIRRPPIRPRFYPG-NH2 [P14R] yielded an MIC of 32 µM. RFRPPIRRPPIRPSFYPG-NH2 [P14S] was tested, and the MIC was 64 µM. RFRPPIRRPPIRPWFYPG-NH2 [P14W] showed an MIC of 16 µM. In the case of RFRPPIRRPPIRRPFYPG-NH2 [P13R], the MIC is reported as 64 µM. RFRPPIRRPPIRSPFYPG-NH2 [P13S] gave an MIC of 64 µM. For RFRPPIRRPPIRWPFYPG-NH2 [P13W], the MIC was 16 µM. For RFRPPIRRPPISPPFYPG-NH2 [R12S], the MIC was greater than 64 µM. RFRPPIRRPPIWPPFYPG-NH2 [R12W] showed an MIC greater than 64 µM. Substance “RFRPPIRRPPPRPPFYPG-NH2 (C-terminus assumed) [I11P]” has an MIC greater than 64 µM. “RFRPPIRRPPRRPPFYPG-NH2 (C-terminus assumed) [I11R]” showed an MIC greater than 64 µM. Work on “RFRPPIRRPPSRPPFYPG-NH2 (C-terminus assumed) [I11S]” yielded an MIC greater than 64 µM. With “RFRPPIRRPPWRPPFYPG-NH2 (C-terminus assumed) [I11W]” the MIC was 32 µM. In the case of RFRPPIRRPRIRPPFYPG-NH2 [P10R], the MIC is reported as greater than 64 µM. RFRPPIRRPSIRPPFYPG-NH2 [P10S] showed an MIC of 64 µM. In the case of RFRPPIRRPWIRPPFYPG-NH2 [P10W], the MIC is reported as 32 µM. “RFRPPIRRRPIRPPFYPG-NH2 (C-terminus assumed) [P9R]” was tested, and the MIC was 8 µM. “RFRPPIRRSPIRPPFYPG-NH2 (C-terminus assumed) [P9S]” gave an MIC of 64 µM. “RFRPPIRRWPIRPPFYPG-NH2 (C-terminus assumed) [P9W]” showed an MIC of 16 µM. Substance RFRPPIRSPPIRPPFYPG-NH2 [R8S] has an MIC greater than 64 µM. In the case of RFRPPIRWPPIRPPFYPG-NH2 [R8W], the MIC is reported as 32 µM. In the case of RFRPPISRPPIRPPFYPG-NH2 [R7S], the MIC is reported as greater than 64 µM. RFRPPIWRPPIRPPFYPG-NH2 [R7W] was tested, and the MIC was 64 µM. “RFRPPPRRPPIRPPFYPG-NH2 (C-terminus assumed) [I6P]” showed an MIC greater than 64 µM. “RFRPPRRRPPIRPPFYPG-NH2 (C-terminus assumed) [I6R]” gave an MIC of 16 µM. Substance “RFRPPSRRPPIRPPFYPG-NH2 (C-terminus assumed) [I6S]” has an MIC of 64 µM.

Same assay, conditions: single-substitution library by SPOT‐synthesis (unpurified); MHB, ≈18 hours, 37 °C; median of n≥3
“RFRPPIRRPPIRPPFYPG-NH2 [wt (SPOT form), reference compound]” gave an MIC of 16 µM.
